Data published in patent US6548530B1, “CBI analogs of CC-1065 and the duocarmycins” (The Scripps Research Institute, priority 1995, dated 2003).
Like-named read-outs stand apart in the source and are kept apart here.

Tests used:
[1] = test system: double-stranded DNA (clone w794); test: DNA alkylation of 5′ end-labeled duplex DNA (thermally-induced strand cleavage, PAGE, autoradiography); format: biochemical; settings: for DNA alkylation efficiency, fold less efficient than (+)-CBI-CDPI1 (26): natural enantiomers
Method: FIG. 21 illustrates the thermally-induced strand cleavage of double-stranded DNA (144 bp, nucleotide no. 138-5238, clone w794) after 24 h incubation of agent-DNA at 4° C. followed by removal of unbound agent and 30 inutes incubation at 100° C.; denaturing 8% polyacrylamide gel and autoradiography. Lanes 1-4, Sanger G,C,A, and T sequencing reactions; lane 5, control labeled w794 DNA; lanes 6-8, (+)-CPI-indole2 ((+)-4, 1×10^−4-1×10^−6 M); lanes 9-11, (+)-CBI-indole2 ((+)-27, 1×10^−5-1×10^−7 M).
FIG. 22 illustrates the thermally-induced strand clealvage of 5′ end-labeled duplex DNA (clone w794, 144 bp, nucleotide no 138-5238). Incubation of agent-DNA at 25° C. (24 h) followed by removal of unbound agent and 30 min thermolysis at 100° C., denaturing 8% PAGE, and autoradiography. Lanes 1-2, ent-(−)-duocarmycin SA ((−)-2, 1×10^−6 and 1×10^−7 M); lanes 3-5, (+)-duocarmycin SA, ((+)-2, 1×10^−6-1×10^−8 M); lanes 6-9, G, C, A and T sequencing reactions; lane 10, control labeled w794 DNA; lanes 11-13, (+)-CBI-TMI ((+)-29, 1×10^−6-1×10^−8 M); lanes 14-15, ent-(−)-CBI-TMI ((−)-29, 1×10^−5 and 1×10^−6 M).
FIGS. 23A-23B represent the following: Top: Plot of % integrated optical density (% IOD) versus time established through autoradiography of 5′ ^32P end-labeled DNA and used to monitor the relative rate of w794 alkylation at the 5′-AATTA high affinity site for (+)-CBI-indole2 (27) and (+)-CPI-indole2 (4); 37° C., 0-5 d, 1×10^−5 M agent. Bottom: Plot of % integrated optical density (% IOD) versus time established through autoradiography of 5′ ^32P end-labeled DNA and used to monitor the relative rate of w794 alkylation at the 5′-AATTA high affinity site for (+)-duocarmycin SA (2) and (+)-CBI-TMI (29); 4° C., 0-24 h, 1×10^−6 M agent.
DNA Alkylation Studies. General procedures, the preparation of singly ^32P 5′ end-labeled double-stranded DNA, the agent binding studies, gel electrophoresis, and autoradiography were conducted according to procedures described in full detail elsewhere. (Boger et. al Tetrahedron 1991, 47, 2661). Eppendorf tubes containing the 5′ end-labeled DNA (9 μL, w794 and w836) in TE buffer (10 mM Tris, 1 mM EDTA, pH 7.5) were treated with the agent DIMETHYLSULFOXIDE (1 μL at the specified concentration). The solution was mixed by vortexing and brief centrifugation and subsequently incubated at 25° C. for 3 days. The covalently modified DNA was separated from unbound agent by Ethanol precipitation and resuspended in TE buffer (10 μL). The solution of DNA in an Eppendorf tube sealed with parafilm was heated at 100° C. for 30 min to induce cleavage at the alkylation sites, allowed to cool to 25° C. and centrifuged. Formamide dye (0.33% xylene cyanol FF, 0.03% bromophenol blue, 8.7% Na2EDTA 250 mM) was added (5 μL) to the supernatant. Prior to electrophoresis, the sample was denatured by warming at 100° C. for 5 min, placed in an ice bath, and centrifuged, before the supernatant (3 μL) was loaded directly onto the gel. Sanger dideoxynucleotide sequencing reactions were run as standards adjacent to the reaction samples. Polyacrylamide gel electrophoresis (PAGE) was run on an 8% sequencing gel under denaturing conditions (8 M urea) in TBE buffer (100 mM Tris, 100 mM boric acid, 0.2 mM Na2EDTA) followed by autoradiography.
DNA Alkylation Studies of 2-5: Selectivity and Efficiency. Eppendorf tubes containing singly ^32P 5′-end-labeled double-stranded DNA^10 (9 μL) in TE buffer (10 mM Tris, 1 mM EDTA, pH 7.5) were treated with the agents 190-196 in DIMETHYLSULFOXIDE (1 μL, at the specified concentrations). The solutions were mixed by vortexing and brief centrifugation and subsequently incubated at 4° C. for 24 h. The covalently modified DNA was separated from unbound agent by Ethanol precipitation of the DNA. The Ethanol precipitations were carried out by adding t-RNA as a carrier (1 μL, 10 1μg/μL), a buffer solution containing salt (0.1 volume, 3 M NaOAc in TE) and −20° C. Ethanol (2.5 volumes). […]

[2] = (+)-enantiomer; cited from earlier work
[3] = in vivo; cited from earlier work
L1210 [4] = test: in vitro cytotoxic activity (L1210)
solubility properties = format: physicochemical; settings: polar protic or aprotic solvents, water, nonpolar solvents
L1210 [5] = settings: cited from earlier work
[6] = Mus musculus, L1210, read-out: cytotoxic potency

Compound: O=C(Nc1ccc2[nH]c(C(=O)N3CC4CC45C3=CC(=O)c3ccccc35)cc2c1)c1cc2ccccc2[nH]1 (centres unmarked) [Compound 27]
- relative rate of DNA alkylation k(27)/k(4) ([1]; single high affinity site (5′-AATTA) of w794 DNA, 37° C., 0-5 d, 1×10^−5 M agent): 14
- DNA alkylation efficiency, fold more efficient than (+)-CPI-indole2 (4) ([1]; w794, 4° C. or 37° C., (+)-enantiomers): 10 ×
- in vivo antitumor activity [2]: potent and efficacious
- delayed toxicity [3]: lacked the delayed fatal toxicity
- cytotoxic potency compared with (+)-CC-1065 (L1210 [4]; (+)-enantiomer): comparable
- cytotoxic potency, fold greater than (+)-CPI-indole2 (4, U71,184) (L1210 [4]; (+)-enantiomer): 4 ×

Compound: Cl.NNC(=O)N1CC(CCl)c2c1cc(O)c1ccccc21 (centres unmarked) [Compound 73, 1-(Chloromethyl)-3-(hydrazino)carbonyl-5hydroxy-1,2-dihydro-3H-benz[e]indole hydrochloride]
- in vitro cytotoxic activity compared with N-BOC-CBI (9) (L1210 [4]): more potent
- in vitro cytotoxic activity, fold more potent than tert-butylcarbazate precursor 72 (L1210 [4]; free semicarbazide versus 72): ca. 100 ×
- in vitro cytotoxic activity, fold less potent than (+)-CC-1065 (L1210 [4]; seco precursor with free amine): 100 ×

Compound: Cc1c[nH]c2c1[C@@]13C[C@@H]1CN(C(=O)c1cc4c5c(ccc4[nH]1)N(C(=O)c1cc4c6c(ccc4[nH]1)N(C(N)=O)CC6)CC5)C3=CC2=O [(+)-CPI-CDPI2]
- delayed toxicity [3]: exhibited the delayed toxicity

Compound: NC(=O)N1CCc2c1ccc1[nH]c(C(=O)N3C[C@H]4C[C@@]45C3=CC(=O)c3ccccc35)cc21 [Compound 26, CBI-CDPI1]
- DNA alkylation selectivity (sequence) ([1]; (+)-enantiomer): 5′-A/TA/TA/TA
- DNA alkylation selectivity (sequence) ([1]; ent-(−)-enantiomer): 5′-A/TAA/TA/T

Compound: (+)-CPI-PDE-I1 [reference compound]
- IC50 (L1210 [4]; L1210): 0.02 nM

Compound: COc1c(O)c2c(c3cc(C(=O)N4CCc5c4c(O)c(OC)c4[nH]c(C(=O)N6C[C@H]7C[C@@]78C6=CC(=O)c6[nH]cc(C)c68)cc54)[nH]c13)CCN2C(N)=O [(+)-CC-1065, CC-1065]
- solubility (solubility properties): essentially insoluble in all solvents except DMSO or DMF
- delayed toxicity [3]: exhibited the delayed toxicity
- IC50 (L1210 [4]; L1210): 0.02 nM

Compound: NC(=O)N1CCc2c1ccc1oc(C(=O)N3C[C@H]4CC45C3=CC(=O)c3ccccc35)nc21 (some centres unmarked) [Compound 62, CBI-CDPBO1]
- DNA alkylation efficiency, fold less efficient than (+)-CBI-CDPI1 (26) [1]: approximately 100 ×
- IC50 (L1210 [4]; [6]): 0.5 to 1 nM

Compound: COc1c(O)c2c(c3cc(C(=O)N4CCc5c4c(O)c(OC)c4[nH]c(C(=O)N6CC7CC78C6=CC(=O)c6[nH]cc(C)c68)cc54)[nH]c13)CCN2C(N)=O (stereo not drawn) [ent-(−)-CC-1065]
- cytotoxicity compared with natural (+)-CC-1065 (L1210 [5]): equally cytotoxic
- delayed toxicity [3]: has not been observed

Compound: NC(=O)N1CCc2c1ccc1[nH]c(C(=O)N3C[C@H]4CC45C3=CC(=O)c3ccccc35)nc21 (some centres unmarked) [Compound 64, N^2-[(3′-carbamoyl-1′,2′-dihydro-3′H-pyrrolo[3′,2′-e]benzimidazol-7′-yl)carbonyl]-1,2,9,9a-tetrahydro-cyclopropa-[c]-enz[e]-indol-4-one]
- DNA alkylation efficiency, fold less efficient than (+)-CBI-CDPI1 (26) [1]: approximately 100 ×
- IC50 (L1210 [4]; [6]): 0.5 to 1 nM

Compound: COc1cc2cc(C(=O)N3CC4CC45C3=CC(=O)c3ccccc35)[nH]c2c(OC)c1OC (centres unmarked) [Compound 29, CBI-TMI]
- relative rate of DNA alkylation k(29)/k(2) ([1]; 5′-AATTA high affinity site of w794 DNA, 4° C., 0-24 h, 1×10^−6 M agent): 0.9
